# Measured values as given in patent US20050267020A1, “Polypeptides derived from inducible hsp70 and pharmaceutical compositions containing the same” (priority 2001, published 2005).
# Columns and labels:
# [1] = test system: HHD mice; assay: Vaccination of HHD mice, ex vivo IFN-γ ELISPOT assay; assay type: in vivo, mouse
# Source text: Immune responses were monitored ex vivo in an IFN-γ Elispot assay. The X axis represents the percentage of immunized mice responding to the different epitopes.
# The 8 graphs represent the immune responses obtained for each of the immunized mice with the 22-mer epitope. The X axis represents the number of IFN-γ producing CTLs for 10^5 ex vivo CD8+ cells upon activation. On the Y axis, the bars represent the respective level of IFN-γ producing CTLs against p391 or p393 peptide or against irrelevant HIV pol589 peptides.
# Generation of CTL in HLA-transgenic mice. HLA-transgenic mice were injected subcutaneously at the base of the tail with 100 μg of peptide emulsified in incomplete Freund's adjuvant (IFA) in the presence of 140 μg of the I-A^b restricted HBVcore-derived T-helper epitope (128-140; sequence TPPAYRPPNAPIL). After 11 days, spleen cells (5×10^7 cells in 10 mL) were stimulated in vitro with peptide (10 μM). […]
# ELISPOT Assay. The ELISPOT assay was used to quantify peptide epitope-specific, IFN-γ-releasing effector cells. […] The spots were counted using an automated image analysis system ELISPOT Reader (A/D Strassberg, Germany). The peptide-specific IFN-γ secreting cells frequency could be calculated from the numbers of spot-forming cells and from the CD8+ frequency in the studied lymphocyte population, adressed by immunostaining with an anti-CD8 mAb (clone 3B5; Caltag Laboratories, CA).
# [2] = test system: human CD8+ cells; assay: Generation of CTL from human PBMC with peptide- or polyepitope-pulsed dendritic cells, intracellular IFN-γ staining; assay type: cell-based; conditions: human PBMC; multiple restimulations of CD8+ cells; T2 cells loaded with p380, p391 or p393
# Protocol: The three graphs entitled hCTL380, hCTL391 and hCTL393 represent respectively the testing of p380, p391 and p393-specific human CTLs. P391 and p393 specific CTLs were tested towards EBV-B cells, whereas p380 specific CTLs were tested towards T2 cells. The number of IFN-γ producing CD8+ cells for 10^5 CD8+ cells upon activation, indicated on the X-axis, was measured, as assessed by staining cells for CD8 and intracellular IFN-γ.
# Polyepitope induced human CTL were tested for their capacity to respond to T2 cells loaded with p380, p391 or p393 or the irrelevant HIVpol589 peptides in intracellular IFN-γ staining. The X axis represents the number of IFNγ-producing CTL/10^5 CD8+ cells. On the Y axis, upper to lower bars represent the results obtained when cells were loaded respectively with irrelevant HIV pol589 peptides, or with p380, p391 or p393 peptides.
# Generation of CTL from Human Peripheral Blood Mononuclear Cells (PBMC). Fresh PBMC collected from healthy donnors under informed consent were serologically typed for the studied HLA-class I molecule, and purified using standard Ficoll-Paque (Amersham Pharmacia Biotech AB). Dendritic cells (DC) were prepared by cultivating plastic adherent PBMC in the presence of 500 U/mL GM-CSF (R&D Systems Inc. MN) and 500 U/mL IL-4 (R&D Systems Inc. MN) for 7 days such as described in Keogh et al. (30).
# DC were then maturated for 2 days with 2 μg/mL anti-CD40 antibody and 100 ng/mL Poly I:C (Sigma-Aldrich). […] Autologous CD8+ purified T-cells (CD8 MicroBeads, Miltneyi Biotec Inc. CA) were stimulated weekly with DC pulsed for two hours with peptide (10 μM) and irradiated at 35Gy at a T:DC ratio of 10:1 in culture medium (CM; RPMI 1640 supplemented with 10% human AB serum, […] L-glutamine and gentamycin). 1×10^3 U/mL IL-6 and SU/mL IL-12 (R&D Systems Inc. MN) were added during the first week of culture. 20 U/mL clinical grade IL-2 (Proleukin, Chiron Corp.) and 10 ng/mL IL-7 (R&D Systems Inc. MN) were added during the next two weeks of culture. 7 days after the last stimulation with DC, peptide specific IFN-γ secreting CD8+ T cells were magnetically sorted following encounter of the peptide presented by HLA-A*0201+ B-EBV cells (IFN-γ Secretion Assay, Miltenyi Biotec Inc. CA). The characterization of peptide-specific T cells was tested 7 days after the purification step.
# Intracellular IFN-g Staining. 5×10^4 T cells were incubated with 10^5 stimulating peptide loaded EBV-B cells or with 10^5 tumor cells in the presence of 20 μg/ml brefeldin-A (Sigma, Oakville, Canada). Six hours later, they were washed, stained with r-phycoerythrin-conjugated anti-CD8 antibody (Caltag Laboratories, Burlingame, Calif.) in PBS for 25 min at 4° C., washed and fixed with 4% PFA. Then, cells were permeabilized with PBS 0.5% BSA 0.2% saponin (Sigma, Oakville, Canada), and stained with allophycocyanin-conjugated anti-IFNg mAb (PharMingen, Mississauga, Canada) for 25 min at 4° C. Cells were analyzed on FACSCalibur (Becton Dickinson, Mountain View, Calif.).
# [3] = target: T1, HLA-A*0201 (Homo sapiens, UniProt P04439, D140Y/D185E/D98H/E176V/E277Q/G131W/G231S/I119V/I121R/I166T/I218V/L300P/L318F/N151K/N90K/P208A/P217A/Q86G/Q94H/R138H/R169H/T345S); assay: Measurement of peptide relative affinity to HLA-A*0201 on T2 cells; assay type: binding; conditions: HLA-A*0201, T2 cells; ratio to reference peptide HIVpol 589; the lower the RA-value, the stronger the binding
# T1 construct: Tap−/− cells expressing the studied HLA-class I molecule; endogenous in cells; host or cells: T2 cells (Tap-/-, HLA-A*0201)
# Protocol: Measurement of Peptide Relative Affinity to HLA class I. Tap−/− cells expressing the studied HLA-class I molecule (3×10^5 cells/mL) were incubated with various concentrations of peptides ranging from 100 μM to 0.1 μM in serum-free RPMI 1640 medium supplemented with 100 ng/ml of human β-2m at 37° C. for 16 hours. Cells were then washed twice and stained with the specific anti-class I mAb followed by FITC conjugated goat anti mouse Ig mAb to quantify the expression of HLA-A*0201. For each peptide concentration, the HLA-specific staining was calculated as the % of the staining obtained with 100 μM of the reference peptide. The relative affinity (RA) is determined as: RA=(Concentration of each peptide that induces 20% of HLA expression/Concentration of the reference peptide that induces 20% of HLA expression). The lower the RA-value, the stronger is the peptide binding to HLA. The mean RA value for each peptide is determined from at least three independent experiments. […]
# (§1) The affinity of each peptide was assayed experimentally by determination of the Relative Affinity: the necessary peptide dose to stabilise a reference quantity of HLA-A*0201 molecules at the surface of T2 cells; and the stability of each peptide was assayed by determination of the half-life of the peptide/HLA-A*0201 molecule complex (DC50: dissociation complex 50).
# [4] = target: T2, HLA-A*0201/peptide complex (Homo sapiens, UniProt P04439, D140Y/D185E/D98H/E176V/E277Q/G131W/G231S/I119V/I121R/I166T/I218V/L300P/L318F/N151K/N90K/P208A/P217A/Q86G/Q94H/R138H/R169H/T345S); assay: Assessment of peptide/HLA class I complex stability (DC50); assay type: binding; conditions: half life (DC50) of the HLA-A*0201/peptide complex
# T2 construct: Tap−/− cells expressing the studied HLA-class I molecule; endogenous in cells; host or cells: T2 cells (Tap-/-, HLA-A*0201)
# Protocol: Assessment of Peptide/HLA class I Complex Stability. Tap−/− cells (10^6/mL) were incubated overnight with 100 μM of each peptide in serum-free RPMI 1640 medium supplemented with 100 ng/mL of […] at 37° C. Cells were then washed four times to remove free peptide, incubated with Brefeldin A (10 μg/mL) for 1 hour to block cell surface expression of newly synthesized HLA molecules, washed and incubated at 37° C. for 0, 2, 4 or 6 hours. Subsequently, cells were stained with the HLA specific mAb followed by FITC conjugated goat anti mouse Ig mAb. For each time point, peptide induced HLA expression was calculated as: Mean fluorescence of peptide preincubated cells—Mean fluorescence of cells treated in similar conditions in the absence of peptide. DC50 (dissociation complex; DC) was defined as the time required for the loss of 50% of the HLA-A*0201/peptide complexes stabilized at t=0.
# as §1
sequence,measurement,setting,value
LMGDKSENVQDLLLLDVAPLSL [22-mer polyepitope],mice responding after vaccination,[1],induced responses in most mice
same,epitopes against which immune responses were raised after vaccination,"[1]; HSP380, HSP391, HSP393 epitopes",induced immune responses against all three Hsp70 epitopes
same,specificity of human CTL lines induced with pulsed dendritic cells,[2],showed specificity towards all three Hsp70 epitopes
LIGRKFGDPV [HSP 73],Relative affinity,[3],>20
SLFEGIDFYT [HSP 286],Stability (hrs),[4],>6 h hrs
